# In ChEMBL document CHEMBL3885881, “DrugMatrix”:
# Species: Rattus norvegicus
# Experiment: DrugMatrix - Regimen: Daily Repeat
# Format: toxicity, organism-based, Sprague-Dawley
# Parameters: regimen Daily Repeat, gender Male, age 6-8 weeks
# Conditions: in vivo, po, route oral GAVAGE, […]; for ABSOLUTE BASOPHIL / ABSOLUTE EOSINOPHIL / BASOPHIL / NUCLEATED RED BLOOD CELLS / EOSINOPHIL / ABSOLUTE MONOCYTE / ABSOLUTE SEGMENTED NEUTROPHIL / ERYTHROCYTE COUNT / HEMATOCRIT / HEMOGLOBIN / LEUKOCYTE COUNT / LYMPHOCYTE / MEAN CORPUSCULAR HEMOGLOBIN / MEAN CORPUSCULAR HEMOGLOBIN CONCENTRATION / MEAN CORPUSCULAR VOLUME / MONOCYTE / NEUTROPHIL / PLATELET COUNT: tissue Blood; for CREATININE / POTASSIUM / TOTAL BILIRUBIN / ALANINE AMINOTRANSFERASE / ALBUMIN / ASPARTATE AMINOTRANSFERASE / BLOOD UREA NITROGEN / CARBON DIOXIDE / CHLORIDE / CHOLESTEROL / CREATINE PHOSPHOKINASE / GLUCOSE / LACTATE DEHYDROGENASE / PHOSPHORUS / SODIUM / TOTAL PROTEIN / URIC ACID / LIPASE: tissue Plasma
# [1] = 0 mg/kg, 72 h, dose level Control, time 3 day
# [2] = 0 mg/kg, 120 h, dose level Control, time 5 day
# [3] = 100 mg/kg, 72 h, dose level Low, time 3 day
# [4] = 100 mg/kg, 120 h, dose level Low, time 5 day
# [5] = 750 mg/kg, 72 h, dose level High, time 3 day
# [6] = 750 mg/kg, 120 h, dose level High, time 5 day
compound,measurement,setting,value
COc1cc([C@@H]2c3cc4c(cc3[C@@H](O[C@@H]3O[C@@H]5CO[C@@H](C)O[C@H]5[C@H](O)[C@H]3O)[C@H]3COC(=O)[C@H]23)OCO4)cc(OC)c1O [ETOPOSIDE],ABSOLUTE BASOPHIL,[1],0 CELLS/uL
same,ABSOLUTE EOSINOPHIL,[1],52.33 CELLS/uL
same,BASOPHIL,[1],0%
same,NUCLEATED RED BLOOD CELLS,[1],0 /100WBC
same,CREATININE,[1],0.33 mg/dL
same,POTASSIUM,[1],5.37 MEQ/L
same,TOTAL BILIRUBIN,[1],0.2 mg/dL
same,ABSOLUTE BASOPHIL,[2],0 CELLS/uL
same,ABSOLUTE EOSINOPHIL,[2],0 CELLS/uL
same,BASOPHIL,[2],0%
same,EOSINOPHIL,[2],0%
same,TOTAL BILIRUBIN,[2],0.37 mg/dL
same,ABSOLUTE BASOPHIL,[3],0 CELLS/uL
same,ABSOLUTE EOSINOPHIL,[3],0 CELLS/uL
same,ABSOLUTE MONOCYTE,[3],20.33 CELLS/uL
same,ABSOLUTE SEGMENTED NEUTROPHIL,[3],390.33 CELLS/uL
same,BASOPHIL,[3],0%
same,EOSINOPHIL,[3],0%
same,ERYTHROCYTE COUNT,[3],4.86 x10E6/uL
same,HEMATOCRIT,[3],29.9%
same,HEMOGLOBIN,[3],12.13 G/DL
same,LEUKOCYTE COUNT,[3],5.67 x10E3/uL
same,LYMPHOCYTE,[3],90%
same,MEAN CORPUSCULAR HEMOGLOBIN,[3],24.93 pg
same,MEAN CORPUSCULAR HEMOGLOBIN CONCENTRATION,[3],40.57 G/DL
same,MEAN CORPUSCULAR VOLUME,[3],61.53 fL
same,MONOCYTE,[3],0.33%
same,NEUTROPHIL,[3],9.67%
same,NUCLEATED RED BLOOD CELLS,[3],0 /100WBC
same,PLATELET COUNT,[3],1214.33 x10E3/uL
same,ALANINE AMINOTRANSFERASE,[3],36.67 u/L
same,ALBUMIN,[3],3.7 G/DL
same,ASPARTATE AMINOTRANSFERASE,[3],67.67 u/L
same,BLOOD UREA NITROGEN,[3],7.67 mg/dL
same,CARBON DIOXIDE,[3],27 mmol/L
same,CHLORIDE,[3],102.67 MEQ/L
same,CHOLESTEROL,[3],92 mg/dL
same,CREATINE PHOSPHOKINASE,[3],255.67 u/L
same,CREATININE,[3],0.23 mg/dL
same,GLUCOSE,[3],185 mg/dL
same,LACTATE DEHYDROGENASE,[3],162.33 u/L
same,PHOSPHORUS,[3],11 mg/dL
same,POTASSIUM,[3],4.69 MEQ/L
same,SODIUM,[3],145 MEQ/L
same,TOTAL BILIRUBIN,[3],0.1 mg/dL
same,TOTAL PROTEIN,[3],5.5 G/DL
same,URIC ACID,[3],0.8 mg/dL
same,ABSOLUTE BASOPHIL,[4],0 CELLS/uL
same,ABSOLUTE EOSINOPHIL,[4],0 CELLS/uL
same,ABSOLUTE MONOCYTE,[4],12 CELLS/uL
same,ABSOLUTE SEGMENTED NEUTROPHIL,[4],593.67 CELLS/uL
same,BASOPHIL,[4],0%
same,EOSINOPHIL,[4],0%
same,ERYTHROCYTE COUNT,[4],4.82 x10E6/uL
same,HEMATOCRIT,[4],30.6%
same,HEMOGLOBIN,[4],12.2 G/DL
same,LEUKOCYTE COUNT,[4],4.43 x10E3/uL
same,LYMPHOCYTE,[4],86%
same,MEAN CORPUSCULAR HEMOGLOBIN,[4],25.37 pg
same,MEAN CORPUSCULAR HEMOGLOBIN CONCENTRATION,[4],39.9 G/DL
same,MEAN CORPUSCULAR VOLUME,[4],63.67 fL
same,MONOCYTE,[4],0.33%
same,NEUTROPHIL,[4],13.67%
same,NUCLEATED RED BLOOD CELLS,[4],0 /100WBC
same,PLATELET COUNT,[4],1205.67 x10E3/uL
same,ALANINE AMINOTRANSFERASE,[4],53.33 u/L
same,ALBUMIN,[4],3.97 G/DL
same,ASPARTATE AMINOTRANSFERASE,[4],81 u/L
same,BLOOD UREA NITROGEN,[4],8.33 mg/dL
same,CHLORIDE,[4],104.33 MEQ/L
same,CHOLESTEROL,[4],87.67 mg/dL
same,CREATINE PHOSPHOKINASE,[4],278.33 u/L
same,CREATININE,[4],0.3 mg/dL
same,GLUCOSE,[4],157 mg/dL
same,LACTATE DEHYDROGENASE,[4],65.67 u/L
same,LIPASE,[4],8.67 u/L
same,PHOSPHORUS,[4],9.87 mg/dL
same,POTASSIUM,[4],5.33 MEQ/L
same,SODIUM,[4],145.8 MEQ/L
same,TOTAL BILIRUBIN,[4],0.1 mg/dL
same,TOTAL PROTEIN,[4],5.6 G/DL
same,URIC ACID,[4],0.4 mg/dL
same,ABSOLUTE BASOPHIL,[5],0 CELLS/uL
same,ABSOLUTE EOSINOPHIL,[5],0 CELLS/uL
same,ABSOLUTE MONOCYTE,[5],23 CELLS/uL
same,ABSOLUTE SEGMENTED NEUTROPHIL,[5],326.67 CELLS/uL
same,BASOPHIL,[5],0%
same,EOSINOPHIL,[5],0%
same,ERYTHROCYTE COUNT,[5],4.79 x10E6/uL
same,HEMATOCRIT,[5],30.9%
same,HEMOGLOBIN,[5],12.47 G/DL
same,LEUKOCYTE COUNT,[5],4 x10E3/uL
same,LYMPHOCYTE,[5],91.33%
same,MEAN CORPUSCULAR HEMOGLOBIN,[5],26 pg
same,MEAN CORPUSCULAR HEMOGLOBIN CONCENTRATION,[5],40.33 G/DL
same,MEAN CORPUSCULAR VOLUME,[5],64.5 fL
same,MONOCYTE,[5],0.67%
same,NEUTROPHIL,[5],8%
same,NUCLEATED RED BLOOD CELLS,[5],0 /100WBC
same,PLATELET COUNT,[5],1133.33 x10E3/uL
same,ALANINE AMINOTRANSFERASE,[5],36.33 u/L
same,ALBUMIN,[5],3.77 G/DL
same,ASPARTATE AMINOTRANSFERASE,[5],71 u/L
same,BLOOD UREA NITROGEN,[5],9 mg/dL
same,CARBON DIOXIDE,[5],26 mmol/L
same,CHOLESTEROL,[5],79.67 mg/dL
same,CREATINE PHOSPHOKINASE,[5],235.33 u/L
same,CREATININE,[5],0.1 mg/dL
same,GLUCOSE,[5],189 mg/dL
same,LACTATE DEHYDROGENASE,[5],94.67 u/L
same,LIPASE,[5],11.33 u/L
same,PHOSPHORUS,[5],11.07 mg/dL
same,POTASSIUM,[5],4.56 MEQ/L
same,SODIUM,[5],142.5 MEQ/L
same,TOTAL BILIRUBIN,[5],0.1 mg/dL
same,TOTAL PROTEIN,[5],5.4 G/DL
same,URIC ACID,[5],0.37 mg/dL
same,ABSOLUTE BASOPHIL,[6],0 CELLS/uL
same,ABSOLUTE EOSINOPHIL,[6],0 CELLS/uL
same,ABSOLUTE MONOCYTE,[6],44.5 CELLS/uL
same,ABSOLUTE SEGMENTED NEUTROPHIL,[6],165.5 CELLS/uL
same,BASOPHIL,[6],0%
same,EOSINOPHIL,[6],0%
same,ERYTHROCYTE COUNT,[6],6.19 x10E6/uL
same,HEMATOCRIT,[6],38.1%
same,HEMOGLOBIN,[6],15.5 G/DL
same,LEUKOCYTE COUNT,[6],2.85 x10E3/uL
same,LYMPHOCYTE,[6],93%
same,MEAN CORPUSCULAR HEMOGLOBIN,[6],25.05 pg
same,MEAN CORPUSCULAR HEMOGLOBIN CONCENTRATION,[6],40.7 G/DL
same,MEAN CORPUSCULAR VOLUME,[6],61.55 fL
same,MONOCYTE,[6],1.5%
same,NEUTROPHIL,[6],5.5%
same,NUCLEATED RED BLOOD CELLS,[6],0 /100WBC
same,PLATELET COUNT,[6],975 x10E3/uL
same,ALANINE AMINOTRANSFERASE,[6],21.5 u/L
same,ALBUMIN,[6],4.1 G/DL
same,ASPARTATE AMINOTRANSFERASE,[6],87 u/L
same,BLOOD UREA NITROGEN,[6],106.5 mg/dL
same,CARBON DIOXIDE,[6],28 mmol/L
same,CHLORIDE,[6],92 MEQ/L
same,CHOLESTEROL,[6],83.5 mg/dL
same,CREATINE PHOSPHOKINASE,[6],328.5 u/L
same,CREATININE,[6],0.69 mg/dL
same,GLUCOSE,[6],115 mg/dL
same,LACTATE DEHYDROGENASE,[6],82 u/L
same,LIPASE,[6],10 u/L
same,PHOSPHORUS,[6],9.8 mg/dL
same,POTASSIUM,[6],6.46 MEQ/L
same,SODIUM,[6],133.6 MEQ/L
same,TOTAL BILIRUBIN,[6],0.15 mg/dL
same,TOTAL PROTEIN,[6],6.3 G/DL
same,URIC ACID,[6],0.35 mg/dL
